Here are results for 2 molecules from patent US10015967B2, “Form of isoxadifen-ethyl, a process for its preparation and use of the same” (ROTAM AGROCHEM INTERNATIONAL COMPANY LIMITED, priority 2015, dated 2018).

A short description of series [1]: Stability of isoxadifen-ethyl (hydrolysis in water or during storage), general statement. The class given is physicochemical. The following applies: dissolved or dispersed in water; storage with exposure to moisture.
Series [2] is described as follows: Stability test: aging of formulation samples in heated ovens per CIPAC MT 46.3, isoxadifen-ethyl content by HPLC. The series is classed as physicochemical. The settings on record: for RPH % (relative percentage of hydrolysis): stored at 54° C. for 1 week. The protocol: The stability of the isoxadifen-ethyl in these compositions was determined by aging samples in heated ovens having the same atmosphere therein, and then comparing the isoxadifen-ethyl content before and after aging to determine relative percentage of hydrolysis (RPH). RPH was calculated by the following equation: […]
Isoxadifen-ethyl content was determined by assaying the compositions with high-pressure liquid chromatography (HPLC) using reverse phase columns and eluants.
Samples prepared in Examples 4, 5 and 6 were stored at 54° C. for 1 week. The procedures are followed according to CIPAC MT 46.3. The concentration of isoxadifen-ethyl was measured at the end of each storage time by HPLC.

The mark [3] stands for this setting: Example 4 oil based suspension concentrate (OD) with tribenuron-methyl, 10 weight % isoxadifen-ethyl.
[4] abbreviates: Example 5 soluble granules (SG) with metsulfuron-methyl, 7 weight % isoxadifen-ethyl.
The mark [5] stands for this setting: Example 6 water dispersible granules (WG) with metsulfuron-methyl, 7 weight % isoxadifen-ethyl.

Structures are written as SMILES.

With `CCOC(=O)C1=NOC(c2ccccc2)(c2ccccc2)C1` [Amorphous isoxadifen-ethyl, Ethyl 4,5-dihydro-5,5-diphenyl-3-isoxazolecarboxylate], the “stability (hydrolysis)” value in series [1] is “highly unstable”. In addition, the “RPH % (relative percentage of hydrolysis)” value in series [2] (setting [3]) was 50%; in series [2] (setting [4]), 40%; in series [2] (setting [5]), 45%.

For the molecule `CCOC(=O)C1=NOC(c2ccccc2)(c2ccccc2)C1` [Isoxadifen-ethyl, crystalline modification I] [Ethyl 4,5-dihydro-5,5-diphenyl-3-isoxazolecarboxylate], the “RPH % (relative percentage of hydrolysis)” value in series [2] (setting [3]), in series [2] (setting [4]) and in series [2] (setting [5]) was 0% in each case. Besides, in series [2] (relative to formulations containing the amorphous form), the “stability when mixing with sulfonylurea herbicides in formulations” value was “significant increase in its stability”.
